Source: ChEMBL document CHEMBL1151923, “Synthesis and evaluation of a netropsin-proximicin-hybrid library for DNA binding and cytotoxicity” (2009)

What was measured:
[1] = tested on: AGS; experiment: Cytotoxicity against human AGS cells after 48 hrs by sulforhodamine B assay; assay type: functional
[2] = tested on: HepG2; experiment: Cytotoxicity against human HepG2 cells after 48 hrs by sulforhodamine B assay; assay type: functional; settings: HepG2, 48 h
[3] = tested on: MCF7; experiment: Cytotoxicity against human MCF7 cells after 48 hrs by sulforhodamine B assay; assay type: functional; settings: MCF7, 48 h
[4] = tested on: Nucleic Acid; experiment: Binding affinity to DNA minor groove region CGCAAATTTGCG assessed as melting temperature at 6 uM by thermal denaturation study; assay type: nucleic-acid assay
[5] = tested on: Nucleic Acid; experiment: Binding affinity to DNA minor groove region CGCAAATTTGCG assessed as change in melting temperature at 6 uM by thermal denaturation study; assay type: nucleic-acid assay
[6] = tested on: Nucleic Acid; experiment: Binding affinity to DNA minor groove region CATGGCCATG assessed as melting temperature at 6 uM by thermal denaturation study; assay type: nucleic-acid assay
[7] = tested on: Nucleic Acid; experiment: Binding affinity to DNA minor groove region CATGGCCATG assessed as change in melting temperature at 6 uM by thermal denaturation study; assay type: nucleic-acid assay

Tm [4]	ΔTm [5]	Tm [6]	ΔTm [7]	Structure (SMILES)	GI50 [1]	GI50 [2]	GI50 [3]
59 °C	11 °C	68 °C	21 °C	Cn1cc(NC(=O)c2cc(NC(=O)OCC(Cl)(Cl)Cl)cn2C)cc1C(=O)NCCc1c[nH]c2ccccc12	10 µM	4 µM	10.3 µM
71 °C	25 °C	47 °C	0 °C	COC(=O)Nc1cc(C(=O)Nc2cc(C(=O)OCCc3ccccc3)n(C)c2)n(C)c1	2.8 µM	2 µM	13 µM
–	–	–	–	Cn1cc(NC(=O)c2cc(NC(=O)C(C)(C)C)cn2C)cc1C(=O)NCCc1c[nH]c2ccccc12	23.5 µM	> 40.9 µM	17.4 µM
–	–	–	–	Cn1cc(NC(=O)c2cc(NC(=O)OCC3c4ccccc4-c4ccccc43)cn2C)cc1C(=O)NCCc1c[nH]c2ccccc12	> 31.9 µM	4.6 µM	18.8 µM
–	–	–	–	COC(=O)Nc1cc(C(=O)Nc2cc(C(=O)NCCc3c[nH]c4ccccc34)n(C)c2)n(C)c1	17.7 µM	21.6 µM	24.9 µM
–	–	–	–	COC(=O)Nc1cc(C(=O)Nc2cc(C(=O)NCCc3cnc[nH]3)n(C)c2)n(C)c1	> 20 µg/mL	> 20 µg/mL	> 20 µg/mL
–	–	–	–	COC(=O)Nc1cc(C(=O)Nc2cc(C(=O)NCCCC(=O)O)n(C)c2)n(C)c1	> 20 µg/mL	> 20 µg/mL	> 20 µg/mL
–	–	–	–	COC(=O)Nc1cc(C(=O)Nc2cc(C(=O)NCCC(C)C)n(C)c2)n(C)c1	> 20 µg/mL	> 20 µg/mL	> 20 µg/mL
–	–	–	–	COC(=O)Nc1coc(C(=O)Nc2coc(C(N)=O)c2)c1 [PROXIMICIN A]	2 µM	2.8 µM	24.6 µM
–	–	–	–	COC(=O)Nc1coc(C(=O)Nc2coc(C(=O)NCCc3c[nH]c4ccccc34)c2)c1 [PROXIMICIN C]	0.6 µM	1.8 µM	20.6 µM
–	–	–	–	C=CCOC(=O)Nc1cc(C(=O)Nc2cc(C(=O)NCCc3c[nH]c4ccccc34)n(C)c2)n(C)c1	1.7 µM	14.3 µM	15.4 µM
–	–	–	–	Cn1cc(NC(=O)c2cc(NC(=O)NCc3ccccc3)cn2C)cc1C(=O)NCCc1c[nH]c2ccccc12	> 20 µg/mL	> 20 µg/mL	> 20 µg/mL
53 °C	6 °C	45 °C	0 °C	Cn1cc(NC(=O)c2cc(NC(=O)Nc3ccccc3)cn2C)cc1C(=O)NCCc1c[nH]c2ccccc12	16.8 µM	14.3 µM	19.7 µM
–	–	–	–	COC(=O)Nc1cc(C(=O)Nc2cc(C(=O)O)n(C)c2)n(C)c1	> 20 µg/mL	> 20 µg/mL	> 20 µg/mL
–	–	–	–	COC(=O)Nc1cc(C(=O)Nc2cc(C(=O)NCCc3ccc(O)c(O)c3)n(C)c2)n(C)c1	> 20 µg/mL	> 20 µg/mL	> 20 µg/mL
65 °C	17 °C	70 °C	23 °C	Cn1cc(NC(=O)c2cc(NC(=O)OCc3ccccc3)cn2C)cc1C(=O)NCCc1c[nH]c2ccccc12	9.3 µM	5.6 µM	10.8 µM
–	–	–	–	COC(=O)Nc1cc(C(=O)Nc2cc(C(=O)NCCc3ccccc3)n(C)c2)n(C)c1	> 20 µg/mL	> 20 µg/mL	> 20 µg/mL
–	–	–	–	COC(=O)Nc1coc(C(=O)Nc2coc(C(=O)NCCc3ccc(O)cc3)c2)c1 [PROXIMICIN B]	3.6 µM	23 µM	12.1 µM
–	–	–	–	COC(=O)Nc1cc(C(=O)Nc2cc(C(=O)NCCc3c[nH]c4ccc(O)cc34)n(C)c2)n(C)c1	> 20 µg/mL	> 20 µg/mL	> 20 µg/mL
–	–	–	–	COC(=O)Nc1cc(C(=O)Nc2cc(C(=O)NC(Cc3c[nH]c4ccccc34)C(=O)O)n(C)c2)n(C)c1 (configuration not stated)	> 20 µg/mL	> 20 µg/mL	> 20 µg/mL
65 °C	16 °C	45 °C	0 °C	Cn1cc(NC(=O)c2cc(NC(=O)c3cc(NC=O)cn3C)cn2C)cc1C(=O)NCCC(=N)N	–	–	–
–	–	–	–	CC(=O)Nc1cc(C(=O)Nc2cc(C(=O)NCCc3c[nH]c4ccccc34)n(C)c2)n(C)c1	> 20 µg/mL	> 20 µg/mL	> 20 µg/mL

Structure (SMILES)	Tm [4]	ΔTm [5]	Tm [6]	ΔTm [7]	GI50 [1]	GI50 [2]	GI50 [3]
Cn1cc(NC(=O)c2cc(NC(=O)CNC(=N)N)cn2C)cc1C(=O)NCCC(=N)N	69 °C	18 °C	48 °C	0 °C	–	–	–
